Source: patent publication US8697419B2, “Compositions and methods for culturing spirochetes” (Advanced Laboratory Services, Inc., priority 2011, dated 2014)

Legend:
Type in all cases: cell-based
Borrelia burgdorferi [1] = experiment: Effect of DTT concentration on spirochete growth in BSK-H medium, dark-field microscopy
Protocol: (§1) The cells were cultured for 6 days with different concentration of rabbit serum, DTT and antibiotics, as depicted, and cellular growth was evaluated by direct cell counting of motile spirochetes using dark field microscopy. Each set of data represents three independent experiments (mean±SD). Statistical significance was determined using two-sample paired t-test. The data *p-values<0.05 indicates statistical significance as related to control.
The effect of the addition of a reducing agent, such as DTT, to the culture media was also evaluated. To determine the effect of DTT concentration on spirochete growth, Borrelia burgdorferi were cultured in BSK-H medium with 6%, 12%, and 20% rabbit serum and either 0.145 μg/ml DTT or 100 μg/ml DTT. The spirochetes were incubated in a CO2 incubator at 34° C. with 5% CO2 and 100% humidity for 6 days, at which time spirochete growth was evaluated by dark-field microscopy. […] See, FIG. 2B. […] See, FIG. 2B, p=0.0002.

Borrelia burgdorferi [2] = experiment: Effect of magnesium concentration on spirochete growth in BSK-H medium; details: 7.5×10^−2 M vs 7.5×10^−3 M MgCl2, 6% rabbit serum, 6 days, data not shown
Protocol: To determine the effect of magnesium concentration on spirochete growth, Borrelia burgdorferi were cultured in BSK-H medium with 6% rabbit serum and either 7.5×10^−2 M MgCl2, or 7.5×10^−3 M MgCl2. The spirochetes were incubated in a CO2 incubator at 32° C. with 5% CO2 and 100% humidity for 6 days, at which time spirochete growth was evaluated by dark-field microscopy.

Borrelia burgdorferi [3] = experiment: Effect of antibiotic concentration on spirochete growth in BSK-H medium, dark-field microscopy
Protocol: as §1
To determine the effect of antibiotic concentration on spirochete growth, Borrelia burgdorferi were cultured in BSK-H medium containing 12% rabbit serum, 100 μg/ml DTT and one of the following antibiotics: 0.5 μg/ml rifampicin, 50 μg/ml rifampicin, a 5 μg/ml rifampicin disc (resulting in final concentration of 0.4 μg/ml), 50 μg/ml phosphomycin, 100 μg/ml phosphomycin, or the combination of 50 μg/ml rifampicin and 50 μg/ml phosphomycin. The spirochetes were incubated in a CO2 incubator at 34° C. with 5% CO2 and 100% humidity for 6 days, at which time spirochete growth was evaluated by dark-field microscopy. […] See, FIG. 2C.

O[C@H](CS)[C@H](O)CS (racemic) [DTT, dithiothreitol]
spirochete yield, 100 μg/ml DTT relative to 0.145 μg/ml DTT (Borrelia burgdorferi [1]; BSK-H with 12% rabbit serum, p=0.0002): twice as many spirochetes
spirochete yields (Borrelia burgdorferi [1]; DTT (0.145 or 100 μg/ml) included in BSK-H culture medium, 6 days): increased spirochete yields

[Cl-].[Cl-].[Mg+2] [MgCl2]
spirochete growth (Borrelia burgdorferi [2]): No significant differences in spirochete growth

C[C@@H]1O[C@@H]1P(=O)(O)O [phosphomycin]
spirochete yield (Borrelia burgdorferi [3]; 50 or 100 μg/ml phosphomycin, BSK-H, 12% rabbit serum, 100 μg/ml DTT, 6 days, 34° C.): significantly decreased spirochete yield
spirochete yields (Borrelia burgdorferi [3]; lower concentrations of phosphomycin (e.g., 10 and 50 μg/ml), data not shown): significantly decreased spirochete yields
